Measurements as given in patent publication US10023591B2, “Heterocyclic derivatives and use thereof” (C&C RESEARCH LABORATORIES, priority 2014, dated 2018).

Assays:
STAT3 = STAT3 reporter gene assay (luciferase), LNCaP stable cell line pSTAT3-TA-luc, IL-6 stimulation; assay type: cell-based, human; conditions: Homo sapiens
Summary of the method: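 LNCaP cells stably carrying pSTAT3-TA-luc were plated 24 h in 3% DCC-FBS medium, then given compound followed by IL-6 (10 ng/mL final) for 24 h at 37 °C. Luciferase was read from lysates, with CellTiter-Glo viability on a duplicate plate. Stimulated 0.1% DMSO wells served as uninhibited control.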

STAT1 = STAT1 reporter gene assay (luciferase), U2OS stable cell line pGL4-STAT1-TA-luc, IFN-γ stimulation; assay type: cell-based, human; conditions: Homo sapiens, IFN-γ 50 ng/mL, 8 hours, read-out: IC50 (μM) pSTAT1
Summary of the method: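 U2OS cells stably carrying a STAT1-driven luciferase reporter were treated with serially diluted compounds plus IFN-γ (50 ng/mL final) for 8 h at 37 °C in 10% FBS medium. Luciferase read after lysis; parallel plate assessed for cytotoxicity by CellTiter-Glo.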

[1] = tested on: LNCaP prostate cancer cell line; experiment: Cell growth inhibition assay, LNCaP (CellTiter-Glo); assay type: cell-based; conditions: Homo sapiens; LNCaP, 10,000 cells/well, medium with 10 ng/mL IL-6, 96 hours
Description: (§1) The inhibitory effects of the compounds of the present invention against the growth of cancer cells were evaluated as shown below. The cancer cell lines including prostate cancer cell lines (LNCaP, DU-145), stomach cancer cell line (NCI-N87), and breast cancer cell lines (MDA-MB-468) were cultured under the protocol provided by each supplier. A medium supplemented with 10 ng/mL of IL-6 was used for LNCaP, a prostate cancer cell line, when treated with a drug. Each type of cells to be used in experiments was sub-cultured in a 96-well plate by counting the exact number of cells using Tali™ Image-based Cytometer (Life Technologies). In a 96-well plate, DU-145 was employed with 3,000 cells/well; NCI-N87 was employed with 5,000 cells/well; and LNCaP and MDA-MB-468 were employed with 10,000 cells/well. The cells were treated with the compounds listed in Examples which were diluted in various concentrations. Upon completion of the compounds treatment, LNCaP, DU-145, NCI-N87 cells were cultured at 37° C. under 5% CO2 for 96 hours, and MDA-MB-468 cells were cultured at 37° C. in air for 96 hours. Subsequently, the cells were observed under microscope and drug precipitation and particular findings were investigated and recorded. And then, the 96-well plate was placed at room temperature for 30 minutes, added with 20 pt/well of CellTiter-Glo solution (Cat No. G7573, Promega) and shaken for 10 minutes, followed by being subjected to the measurement using PHERAstar™ microplate reader (BMG LABTECH) according to the supplier's general luminometer protocol. Wells where only culture liquid added without cell plating were used as a negative control, whereas wells where culture liquid containing 0.1% DMSO instead of the compounds listed in Examples were used as a positive control.

[2] = tested on: DU-145 prostate cancer cell line; experiment: Cell growth inhibition assay, DU-145 (CellTiter-Glo); assay type: cell-based; conditions: Homo sapiens; DU-145, 3,000 cells/well, 96 hours
Description: as §1

IC50 (STAT3) [µM] | IC50 (STAT1) [µM] | IC50 [1] [µM] | IC50 [2] [µM] | SMILES
0.078 | > 50 | 0.53 | 0.037 | CC(C)(c1cc2cc(C(=O)Nc3cc(Cl)cc(Oc4ccc(Cl)cc4)c3)sc2cc1Cl)S(C)(=O)=O [Example 45, 6-chloro-N-(3-chloro-5-(4-chlorophenoxy)phenyl)-5-(2-(methylsulfonyl)propan-2-yl)benzo[b]thiophene-2-carboxamide]
0.054 | > 50 | 0.11 | 0.07 | COc1cc(NC(=O)c2cc3cc(C(C)(C)S(C)(=O)=O)ccc3s2)cc(Oc2ccc(Cl)cc2)c1 [Example 46, N-(3-(4-chlorophenoxy)-5-methoxyphenyl)-5-(2-(methylsulfonyl)propan-2-yl)benzo[b]thiophene-2-carboxamide]
0.022 | > 50 | 0.02 | 0.016 | CC(C)(c1ccc2sc(C(=O)Nc3cc(Cl)cc(Oc4cc(F)cc(Cl)c4)c3)cc2c1)S(C)(=O)=O [Example 47, N-(3-chloro-5-(3-chloro-5-fluorophenoxy)phenyl)-5-(2-(methylsulfonyl)propan-2-yl)benzo[b]thiophene-2-carboxamide]
0.014 | > 50 | 0.01 | 0.008 | CC(C)(c1ccc2sc(C(=O)Nc3cc(Cl)cc(Oc4cccc(OC(F)(F)F)c4)c3)cc2c1)S(C)(=O)=O [Example 48, N-(3-chloro-5-(3-(trifluoromethoxy)phenoxy)phenyl)-5-(2-(methylsulfonyl)propan-2-yl)benzo[b]thiophene-2-carboxamide]
0.019 | > 50 | 0.019 | 0.013 | CC(C)(c1ccc2sc(C(=O)Nc3cc(Cl)cc(Oc4ccc(Cl)cc4)c3)cc2c1)S(C)(=O)=O [Example 49, N-(3-chloro-5-(4-chlorophenoxy)phenyl)-5-(2-(methylsulfonyl)propan-2-yl)benzo[b]thiophene-2-carboxamide]
0.022 | > 50 | 0.031 | 0.0082 | CC(C)(c1ccc2sc(C(=O)Nc3cc(Cl)cc(Oc4ccc(F)c(Cl)c4)c3)cc2c1)S(C)(=O)=O [Example 51, N-(3-chloro-5-(3-chloro-4-fluorophenoxy)phenyl)-5-(2-(methylsulfonyl)propan-2-yl)benzo[b]thiophene-2-carboxamide]
0.025 | > 50 | 0.022 | 0.015 | CC(C)(c1ccc2sc(C(=O)Nc3cc(Cl)cc(Oc4ccc(F)c(F)c4)c3)cc2c1)S(C)(=O)=O [Example 52, N-(3-chloro-5-(3,4-difluorophenoxy)phenyl)-5-(2-(methylsulfonyl)propan-2-yl)benzo[b]thiophene-2-carboxamide]
0.033 | > 50 | 0.037 | 0.02 | COc1cc(F)cc(Oc2cc(Cl)cc(NC(=O)c3cc4cc(C(C)(C)S(C)(=O)=O)ccc4s3)c2)c1 [Example 53, N-(3-chloro-5-(3-fluoro-5-methoxyphenoxy)phenyl)-5-(2-(methylsulfonyl)propan-2-yl)benzo[b]thiophene-2-carboxamide]
0.014 | > 50 | 0.029 | 0.0059 | CC(C)(c1ccc2sc(C(=O)Nc3cc(Cl)cc(Oc4ccc(Cl)c(F)c4)c3)cc2c1)S(C)(=O)=O [Example 54, N-(3-chloro-5-(4-chloro-3-fluorophenoxy)phenyl)-5-(2-(methylsulfonyl)propan-2-yl)benzo[b]thiophene-2-carboxamide]
3.3 | > 50 | > 1.1 | > 1.1 | CS(=O)(=O)C1(c2ccc3sc(C(=O)Nc4cc(Cl)cc(Oc5ccc(Cl)cc5)c4)cc3c2)CCOCC1 [Example 56, N-(3-chloro-5-(4-chlorophenoxy)phenyl)-5-(4-(methylsulfonyl)tetrahydro-2H-pyran-4-yl)benzo[b]thiophene-2-carboxamide]
0.86 | > 50 | 0.24 | 0.11 | CC(C)(c1ccc2cc(C(=O)Nc3cc(Cl)cc(Oc4ccc(Cl)cc4)c3)sc2c1)S(C)(=O)=O [Example 58, N-(3-chloro-5-(4-chlorophenoxy)phenyl)-6-(2-(methylsulfonyl)propan-2-yl)benzo[b]thiophene-2-carboxamide]
0.034 | > 50 | 0.046 | 0.032 | CC(C)(c1ccc2sc(C(=O)Nc3cc(Oc4ccc(Cl)cc4)cc(Cl)n3)cc2c1)S(C)(=O)=O [Example 63, N-(6-chloro-4-(4-chlorophenoxy)pyridin-2-yl)-5-(2-(methylsulfonyl)propan-2-yl)benzo[b]thiophene-2-carboxamide]
0.18 | > 50 | 0.26 | 0.17 | CC(C)(c1ccc2sc(C(=O)Nc3cc(Cl)cc(Oc4ccc(Cl)cc4)n3)cc2c1)S(C)(=O)=O [Example 66, N-(4-chloro-6-(4-chlorophenoxy)pyridin-2-yl)-5-(2-(methylsulfonyl)propan-2-yl)benzo[b]thiophene-2-carboxamide]
> 10 | > 50 | > 1.1 | > 1.1 | CC(C)(c1ccc(Cl)cc1)c1cc(NC(=O)c2cc3cc(C(C)(C)S(C)(=O)=O)ccc3s2)n(C(C)(C)C)n1 [Example 88, N-(1-(tert-butyl)-3-(2-(4-chlorophenyl)propan-2-yl)-1H-pyrazol-5-yl)-5-(2-(methylsulfonyl)propan-2-yl)benzo[b]thiophene-2-carboxamide]
0.14 | > 50 | 0.24 | 0.11 | CC(C)(c1ccc(Cl)cc1)c1cc(NC(=O)c2cc3cc(C(C)(C)S(C)(=O)=O)ccc3s2)[nH]n1 [Example 89, N-(3-(2-(4-chlorophenyl)propan-2-yl)-1H-pyrazol-5-yl)-5-(2-(methylsulfonyl)propan-2-yl)benzo[b]thiophene-2-carboxamide]
5.5 | 9.6 | > 1.1 | > 1.1 | CC1(C)CC(Oc2cc(Cl)cc(NC(=O)c3cc4cc(C(C)(C)S(C)(=O)=O)ccc4s3)c2)CC(C)(C)N1 [Example 92, N-(3-chloro-5-((2,2,6,6-tetramethylpiperidin-4-yl)oxy)phenyl)-5-(2-(methylsulfonyl)propan-2-yl)benzo[b]thiophene-2-carboxamide]
0.072 | > 50 | 0.26 | 0.1 | CC(C)(C)OC(=O)NCCOc1cc(NC(=O)c2cc3cc(C(C)(C)S(C)(=O)=O)ccc3s2)cc(Oc2ccc(Cl)cc2)c1 [Example 93, tert-butyl (2-(3-(4-chlorophenoxy)-5-(5-(2-(methylsulfonyl)propan-2-yl)benzo[b]thiophene-2-carboxamido)phenoxy)ethyl)carbamate]
5.2 | 13.3 | > 1.1 | > 1.1 | CC(C)(c1ccc2sc(C(=O)Nc3cc(OCCN)cc(Oc4ccc(Cl)cc4)c3)cc2c1)S(C)(=O)=O [Example 94, N-(3-(2-aminoethoxy)-5-(4-chlorophenoxy)phenyl)-5-(2-(methylsulfonyl)propan-2-yl)benzo[b]thiophene-2-carboxamide]
0.028 | 35.7 | 0.023 | 0.013 | CS(=O)(=O)Cc1ccc2sc(C(=O)Nc3cc(Cl)cc(-c4ccc(F)cc4F)c3)cc2c1 [Example 95, N-(5-chloro-2′,4′-difluoro-[1,1′-biphenyl]-3-yl)-5-((methylsulfonyl)methyl)benzo[b]thiophene-2-carboxamide]
0.025 | > 50 | 0.028 | 0.016 | CC(C)(c1ccc2sc(C(=O)Nc3cc(Cl)cc(C4(c5ccc(Cl)cc5)CC4)c3)cc2c1)S(C)(=O)=O [Example 97, N-(3-chloro-5-(1-(4-chlorophenyl)cyclopropyl)phenyl)-5-(2-(methylsulfonyl)propan-2-yl)benzo[b]thiophene-2-carboxamide]
0.031 | > 50 | 0.031 | 0.0066 | CN(c1cc(Cl)cc(NC(=O)c2cc3cc(C(C)(C)S(C)(=O)=O)ccc3s2)c1)c1ccc(F)cc1F [Example 98, N-(3-chloro-5-((2,4-difluorophenyl)(methyl)amino)phenyl)-5-(2-(methylsulfonyl)propan-2-yl)benzo[b]thiophene-2-carboxamide]
